For assay [1], the system named is uptake of the neurotransmitter gamma-amino-butyric acid (GABA) into slices of rat hippocampal (brain) tissue. Description: Uptake of 3H-GABA into slices (prisms) of rat hippocampus in vitro. It is filed as biochemical, Male Long Evans rats. The settings on record: 3H-GABA 0.05 μM; 10 mg tissue, 15 min with test compound at 37° C., 2 min uptake; read-out: IC50 (Calculated Median (50%) Inhibitory Concentration). The protocol:
The compounds of formula I are tested for pharmacological activity using three procedures. The first is an assay for the uptake of the neurotransmitter gamma-amino-butyric acid (GABA) into slices of rat hippocampal (brain) tissue incubated in vitro analogous to those described by Johnston, GAR, et al, in J. Neurochem. 26:1029-1032 (1976) entitled "Inhibition of the Uptake of GABA and Related Amino Acids in Rat Brain Slices by the Optical Isomers of Nipecotic Acid." Methods for this test are described in the following paragraph.
Male Long Evans rats (200-300 g) were sacrificed by decapitation, the brains quickly removed and the hippocampi were dissected out. Slices were cut (0.1×0.1 mm) on a McIlwain tissue chopper and dispersed in ice-chilled Krebs Ringer HEPES-buffered medium. Normal medium was composed of: NaCl (119 mM), KCl (4.75 mM), CaCl2 (1.25 mM), KH2 PO4 (1.20 mM), MgSO4 (1.18 mM), HEPES (22 mM), EDTA (0.03 mM), ascorbate (0.6 mM), and glucose (10 mM). The pH was adjusted to 7.2 with 3.0M Tris HCl. Following two washes in normal medium, 10 mg of tissue was incubated in a 3 ml volume of medium at 37° C. for 15 min in the presence or absence of test compound. ^3 H-GABA (80.8 Ci/mmole; 0.05 μM final concentration) was added to each flask and the uptake was allowed to proceed for a two min period. At the end of the uptake period, samples were rapidly filtered through Whatman GF/F filters and washed once with 5 ml ice-chilled 0.9% sodium chloride. The filters with tissue were placed into scintillation vials with 2 ml H2 O and allowed to sit for at least 60 min before scintillation fluid was added and samples counted. Blanks were treated in a manner similar to other samples, but were left on ice throughout the experiment. Results are expressed as percent control (no drug present) or IC50 value.
Table I. GABA uptake into prisms of rat hippocampus in vitro in the presence of different concentrations of various synthetic compounds of formula I.

Assay [2] has as its system tonic hindlimb extensor seizures. Description: Threshold Maximal Electroshock (animal model for generalized seizures). It is filed as in vivo, Male CF-1 mice. The settings on record: Mus musculus, ip, 0.5 h.
Method: Male CF-1 mice (22-30 grams) are allowed free access to food and water prior to testing. For screening, groups of five mice are given a compound intraperitoneally at doses of 30, 100, and 300 mg/kg and tested at 0.5, 2.0, and 4.0 hr after dosing. Drugs are either dissolved in 0.9% saline or suspended in 0.2% methylcellulose. Animals are shocked with corneal electrodes (see below) and observed for tonic hindlimb extensor seizures. Absence of hindlimb extension is taken as an anticonvulsant effect.
The electroshock apparatus delivers a 60 Hz sine wave with a current amplitude of 14 mA (peak-to-peak) for 0.2 seconds. The current strength of 14 mA used in this procedure produces tonic extensor seizures in approximately 95% of untreated mice, but is only slightly above threshold for tonic extension.
Assay [3] deals with threshold clonic seizures in mice caused by subcutaneous administration of pentylenetetrazol. Briefly: Attenuation of threshold clonic seizures in mice caused by subcutaneous pentylenetetrazol (model for absence type seizures). It is filed as in vivo. Particulars: Mus musculus, pentylenetetrazol 85 mg/kg s.c., read-out: Calculated Median Effective Dose (ED50). The protocol: A third pharmacological test was performed as described in R. L. Krall et al, Epilepsia, 19:409 (1978), which is incorporated herein by reference. In this procedure, drugs were tested for attenuation of threshold clonic seizures in mice caused by subcutaneous administration of pentylenetetrazol (85 mg/kg) which is a generally accepted model for absence type seizures. Results from the third test for the compound when administered either intraperitoneally (IP) or orally (PO) are shown below in Table III.

[4] abbreviates: read-out: Number of Animals Protected from Seizures (n/5).
Where [5] appears, read: 30 mg/kg, intraperitoneal, 30 minutes after administration, read-out: Number of Animals Protected from Seizures (n/5).
Where [6] appears, read: 2 h, PO, tested 120 min following dosing.

Where a name gives a salt, the structure may show the parent alone. Read-outs that look alike come from different tables or passages of the source.

As for `CCOC(=O)C1CCCN(CCOC(c2ccc(Cl)cc2)c2ccc(Cl)cc2)C1` (centres unmarked) [Example I, 3-Piperidinecarboxylic acid 1-[2-[bis-(4-chlorophenyl)methoxy]ethyl]-, ethyl ester], the IC50 in assay [1] is 12000 nM. In assay [2] (setting [4]), the responders at 30 mg/kg turned out to be 0% and the responders at 100 mg/kg is 60%.

Turning to `O=C(O)C1CCCN(CCOC(c2ccccc2)c2ccc(Cl)c(Cl)c2)C1` (centres unmarked) [Example IX, 3-Piperidinecarboxylic acid, 1-[2-[(3,4-dichlorophenyl)phenylmethoxy]ethyl]-, monohydrochloride], in assay [2] (setting [4]), the responders at 30 mg/kg was 60% and the responders at 100 mg/kg was 80%.

`CCOC(=O)C1CCCN(CCOC(c2ccccc2)c2ccccc2)C1` (centres unmarked) [II, 3-Piperidinecarboxylic acid, 1-[2-(diphenylmethoxy)ethyl]-, ethyl ester]: the IC50 in assay [1] was approximately 35000 nM. Also, in assay [2] (setting [4]), the responders at 30 mg/kg was 20% and the responders at 100 mg/kg is 80%.

For `CCOC(=O)C1CCCN(CCCOC(c2ccccc2)c2ccccc2)C1` (centres unmarked) [III, 3-Piperidinecarboxylic acid, 1-[3-(diphenylmethoxy)propyl]-, ethyl ester, monohydrochloride], the responders at 30 mg/kg in assay [2] (setting [5]) was 0%.

Take `CCOC(=O)C1CCCN(CCSC(c2ccccc2)c2ccccc2)C1` (centres unmarked) [IV, 3-Piperidinecarboxylic acid, 1-[2-[(diphenylmethyl)thio]ethyl]-, ethyl ester]: in assay [1], the IC50 is approximately 60000 nM.

Regarding `O=C(O)C1CCCN(CCCOC(c2ccccc2)c2ccccc2)C1` (centres unmarked) [VI, 3-Piperidinecarboxylic acid, 1-[3-diphenylmethoxy)propyl]-, monohydrochloride], the IC50 in assay [1] was 11000 nM. Also, in assay [2] (setting [5]), the responders at 30 mg/kg was 0%. In assay [2] (100 mg/kg, intraperitoneal, 30 minutes after administration, read-out: Number of Animals Protected from Seizures (n/5) (converted)), the responders at 100 mg/kg is 20%.

For `Cl.O=C(O)C1CCCN(CCOC(c2ccccc2)c2ccccc2)C1` (centres unmarked) [VII, 3-Piperidinecarboxylic acid, 1-[2-(diphenylmethoxy)ethyl]-, monohydrochloride], the ED50 in assay [3] (0.5 h, IP, tested 30 min following dosing) was 1.9 mg/kg. In assay [1], the IC50 is 3000 nM. Moreover, in assay [2] (setting [4]), the responders at 30 mg/kg was 25% and the responders at 100 mg/kg was 50%.

In the case of `O=C(O)C1CCCN(CCOC(c2ccc(Cl)cc2)c2ccc(Cl)cc2)C1` (centres unmarked) [VIII, 3-piperidinecarboxylic acid, 1-[2-[bis(4-chlorophenyl)methoxy]ethyl]monohydrochloride], the ED50 in assay [3] (setting [6]) was 0.54 mg/kg. Also, in assay [1], the IC50 is 290 nM. In addition, in assay [2] (setting [4]), the responders at 30 mg/kg is 80% and the responders at 100 mg/kg is 80%.

Turning to `O=C(O)C1CCCN(CCOC(c2ccccc2)c2ccc(Cl)c(C(F)(F)F)c2)C1` (centres unmarked) [X, 3-Piperidinecarboxylic acid, 1-[2-[[4-chloro-3-(trifluoromethyl)phenyl]phenylmethoxy]ethyl]monohydrochloride], in assay [1], the IC50 is 860 nM. Also, in assay [2] (setting [4]), the responders at 30 mg/kg is 20% and the responders at 100 mg/kg was 100%.

As to `O=C(O)C1CCCN(CCOC2c3ccccc3C=Cc3ccccc32)C1` (centres unmarked) [XI, 3-Piperidinecarboxylic acid, 1-[2-[(5H-dibenzo[a,d]cyclohepten-5-yloxy)ethyl]]-], in assay [2] (setting [4]), the responders at 30 mg/kg is 20% and the responders at 100 mg/kg is 40%.

On to `O=C(O)C1CCCN(CCOC(c2ccc(F)cc2)c2ccc(F)cc2)C1` (centres unmarked) [XIII, 3-Piperidinecarboxylic acid, 1-[2-[bis (4-fluorophenyl)methoxy]ethyl]-, monohydrochloride], for which, in assay [2] (setting [4]), the responders at 30 mg/kg was 40% and the responders at 100 mg/kg is 40%.

On to `O=C(O)C1=CCCN(CCOC(c2ccc(Cl)cc2)c2ccc(Cl)cc2)C1` [XIX, 3-Pyridinecarboxylic acid, 1-[2-[bis(4-chlorophenyl)methoxy]ethyl]-1,2,5,6-tetrahydro, hydrochloride], for which, in assay [1], the IC50 was 100 nM. In assay [2] (setting [4]), the responders at 30 mg/kg was 80% and the responders at 100 mg/kg was 100%.

For `Cl.O=C(O)C1=CCCN(CCOC(c2ccc(C(F)(F)F)cc2)c2ccc(C(F)(F)F)cc2)C1` [XVII, 3-Pyridinecarboxylic acid, 1-[2-[bis[4-(trifluoromethyl)phenyl]methoxy]ethyl]-1,2,5,6-tetrahydro-, monohydrochloride], the ED50 in assay [3] (setting [6]) was 0.5 mg/kg. For the same compound, in assay [1], the IC50 is 450 nM. In assay [2] (setting [4]), the responders at 30 mg/kg was 80% and the responders at 100 mg/kg was 80%.

Consider `O=C(O)C1CCCN(CCOC(c2ccc(C(F)(F)F)cc2)c2ccc(C(F)(F)F)cc2)C1` (centres unmarked) [XVIII, 3-Piperidinecarboxylic acid, 1-[2-[bis[4-(trifluoromethyl)phenyl]methoxy]ethyl]-, hydrochloride], for which, in assay [1], the IC50 is 700 nM. For the same compound, in assay [2] (setting [4]), the responders at 30 mg/kg is 100% and the responders at 100 mg/kg is 100%.

(Values after US4772615A, “Various N-substituted 3-piperidine carboxylic acids or N-substituted 3-pyridinecarboxylic acids and derivatives thereof” (Warner-Lambert Company, priority 1987, dated 1988).)
